Reference: patent US5625043A, “Anthracyclines with unusually high activity against cells resistant to doxorubicin and its analogs” (Priebe; Waldemar, priority 1995, dated 1997)
pIC50: −log10 of the molar value.

Legend:
J774.2 cells = test: Cytotoxicity against J774.2 cells; format: cell-based, murine; conditions: Mus musculus, J774.2; read-out: ID50 (the source's name)
J7/A300 cells = test: Cytotoxicity against AD 198-resistant J7/A300 cells; format: cell-based, murine
J7/40V cells = test: Cytotoxicity against vinblastine-resistant J7/40V cells; format: cell-based, murine
purified DNA = conditions: compared with anthracycline; cited from earlier work
RNA versus DNA synthesis = conditions: compared with anthracycline; cited from earlier work
G2/M blockade = conditions: compared with anthracycline; cited from earlier work
membrane = conditions: compared with anthracycline; cited from earlier work
[1] = system: purified mammalian topoisomerase II; conditions: cited from earlier work
DNA = conditions: alkaline elution assays; cited from earlier work
[2] = system: cultured murine and human tumor cells; conditions: compared with anthracycline; cited from earlier work
[3] = system: P388 and L1210 leukemic cells and B16-BL6 melanoma cells; conditions: cited from earlier work
[4] = system: variant CCRF-CEM leukemic cells; conditions: cited from earlier work
[5] = system: transplanted MDR L1210 cells; conditions: cited from earlier work
AD 198^R cells = AD 198^R cells versus drug-sensitive cells; cited from earlier work
[6] = system: MDR J774.2 cells selected with vinblastine; conditions: MDR J774.2 selected with vinblastine; cited from earlier work
P-gp = conditions: not told; cited from earlier work

CCCCC(=O)OCC(=O)[C@]1(O)Cc2c(O)c3c(c(O)c2[C@@H](O[C@H]2C[C@H](NCc4ccccc4)[C@H](O)[C@H](C)O2)C1)C(=O)c1c(OC)cccc1C3=O [AD 198]
pIC50 (J774.2 cells): 7.31
resistance of cell line to the selecting drug (J7/A300 cells; AD 198 resistant J7/A300 cells): 15 -fold
RI J7/A300 (J7/A300 cells; J7/A300 versus J774.2): 15
pIC50 (J7/A300 cells; Mus musculus, J7/A300, read-out: ID50 (the source's name)): 6.13
RI J7/40V (J7/40V cells; J7/40V versus J774.2): 14
pIC50 (J7/40V cells; Mus musculus, J7/40V, read-out: ID50 (the source's name)): 6.18
binding to purified DNA (purified DNA): weaker binding to purified DNA
inhibition of RNA versus DNA synthesis (RNA versus DNA synthesis): preferential inhibition of RNA versus DNA synthesis
G2/M blockade (G2/M blockade): irreversible G2 /M blockade
membrane lytic activity (membrane): pronounced membrane lytic activity
inhibition of purified mammalian topoisomerase II [1]: lack of inhibition
protein-associated DNA strand breaks (DNA): significant levels of protein-associated DNA strand breaks
cytotoxicity [2]: enhanced cytotoxicity
ability to circumvent MDR [3]: ability to circumvent MDR
ability to circumvent MDR and resistance due to altered topoisomerase II activity [4]: ability to circumvent MDR
efficacy in vivo [5]: limited efficacy
intracellular level of AD 198 (AD 198^R cells): high levels of intracellular AD 198 similar to that of drug-sensitive cells
cross-resistance [6]: cross-resistant to AD 198
transport by P-gp from the cell (P-gp): inability of P-gp to transport AD 198 from the cell
